# Active and inactive are the calls of the source. No cut-off for these calls is given here.
# How the values were obtained:
# [1] = biological target: T1, Interferon-induced, double-stranded RNA-activated protein kinase (Homo sapiens, UniProt P19525); experiment: Inhibition of human recombinant PKR autophosphorylation using poly[I:C] after 10 mins by luminescent assay
# [2] = biological target: T2, Interferon-induced, double-stranded RNA-activated protein kinase (Mus musculus) (UniProt Q03963); experiment: Inhibition of poly[I:C]-induced PKR autophosphorylation mouse bone marrow macrophages at 40 uM treated immediately before addition of poly[I:C] by Western blotting
# T2 sequence (whole entry): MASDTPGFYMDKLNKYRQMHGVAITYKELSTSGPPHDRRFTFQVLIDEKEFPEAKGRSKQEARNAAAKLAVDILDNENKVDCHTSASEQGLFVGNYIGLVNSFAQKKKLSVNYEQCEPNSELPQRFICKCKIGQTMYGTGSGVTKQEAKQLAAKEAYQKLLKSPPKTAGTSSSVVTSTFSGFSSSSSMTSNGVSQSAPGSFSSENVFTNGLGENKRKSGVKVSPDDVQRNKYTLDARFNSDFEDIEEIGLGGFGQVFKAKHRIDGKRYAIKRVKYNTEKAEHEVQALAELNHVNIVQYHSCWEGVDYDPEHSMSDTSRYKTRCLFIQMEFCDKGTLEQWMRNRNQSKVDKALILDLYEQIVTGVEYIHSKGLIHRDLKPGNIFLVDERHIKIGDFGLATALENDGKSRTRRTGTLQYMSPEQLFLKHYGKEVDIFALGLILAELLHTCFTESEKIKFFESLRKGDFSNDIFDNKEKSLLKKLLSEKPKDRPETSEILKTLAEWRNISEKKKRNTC
# Vero = experiment: Cytotoxicity against african green monkey Vero cells assessed as cell survival at up to 100 uM after 48 hrs by MTS assay; assay type: cell-based; settings: chlorocebus sabaeus
# [3] = Cytotoxicity against mouse bone marrow macrophages assessed as cell survival at up to 100 uM after 48 hrs by MTS assay; assay type: cell-based; settings: macrophage
# [4] = Cytotoxicity against mouse bone marrow macrophages assessed as cell survival at 30 uM after 24 hrs by photomicroscopy analysis; assay type: cell-based; settings: macrophage
# [5] = biological target: T1, Interferon-induced, double-stranded RNA-activated protein kinase; experiment: Competitive inhibition of human recombinant PKR
# [6] = biological target: T2, Interferon-induced, double-stranded RNA-activated protein kinase (Mus musculus); experiment: Inhibition of poly[I:C]-induced PKR autophosphorylation mouse bone marrow macrophages treated immediately before addition of poly[I:C] by Western blotting
# T1 sequence (P19525 whole entry): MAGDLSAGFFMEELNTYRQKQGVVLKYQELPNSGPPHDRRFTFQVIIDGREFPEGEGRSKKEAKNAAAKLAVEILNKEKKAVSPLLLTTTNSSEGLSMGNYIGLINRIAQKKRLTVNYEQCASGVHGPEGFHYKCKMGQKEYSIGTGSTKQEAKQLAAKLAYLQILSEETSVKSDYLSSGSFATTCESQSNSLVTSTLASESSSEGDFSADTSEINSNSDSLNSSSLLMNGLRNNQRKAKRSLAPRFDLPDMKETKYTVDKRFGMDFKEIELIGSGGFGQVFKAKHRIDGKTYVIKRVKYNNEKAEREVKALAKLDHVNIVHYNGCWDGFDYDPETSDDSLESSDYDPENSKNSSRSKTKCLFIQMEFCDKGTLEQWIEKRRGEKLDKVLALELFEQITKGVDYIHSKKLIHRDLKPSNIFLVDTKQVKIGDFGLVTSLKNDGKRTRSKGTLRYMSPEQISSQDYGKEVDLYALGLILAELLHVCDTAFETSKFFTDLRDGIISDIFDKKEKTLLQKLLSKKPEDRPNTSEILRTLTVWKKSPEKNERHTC
SMILES,IC50 [1],also measured
Cn1ncc2c(N3CCOCC3)nc(NCCc3c[nH]c4ccccc34)nc21 [TDR79432],11 µM,
Cc1[nH]c2ccccc2c1-c1ccnc(Nc2ccccc2Cl)n1,19 µM,
O=C(Nc1cccc(Nc2nccc(Nc3cccc(C(F)(F)F)c3)n2)c1)C1CC1 [ANILINOPYRIMIDINE1],20 µM,
Cc1cc(Nc2nc(-c3ccccc3)nc3ccccc23)[nH]n1,15 µM,
Nc1cccc(-c2cc3c(Oc4cccc(O)c4)ncnc3[nH]2)c1,4 µM,
N#CCCc1ccc2c(c1)C1Nc3ccc([N+](=O)[O-])cc3C1CC(=O)N2 (configuration not stated),3.5 µM,
COc1ccc2c(c1)/C(=N/NC(=O)c1cc(Br)ccc1O)C(=O)N2,9.4 µM,
O=Nc1c(-c2c(O)[nH]c3ccccc23)[nH]c2ccccc12 [INDIRUBIN-3-MONOXIME],< 0.1 µM,
Fc1ccc(N2CCN(c3nccc(-c4c[nH]c5ccccc45)n3)CC2)cc1,> 100 µM,
Cn1nc2c3c(cccc31)C(=O)c1ccccc1-2,12 µM,
Cc1[nH]c2ccccc2c1-c1ccnc(Nc2cccnc2)n1,0.1 µM,
O=C1NC(=O)/C(=C/c2c[nH]c3ccccc23)N1,10.5 µM,
COC(=O)c1ccc2c(-c3ccnc(NCCO)n3)c[nH]c2c1,9 µM,
Fc1ccc(Nc2nccc(-c3c(-c4ccccc4)[nH]c4ccccc34)n2)cc1,7 µM,
Cc1[nH]c2ccccc2c1-c1ccnc(Nc2cccc(Cl)c2)n1,0.3 µM,
c1ccc(-c2[nH]c3ccccc3c2-c2ccnc(NCc3cccnc3)n2)cc1,> 100 µM,inhibition [2]: inactive
O=C1NC(=O)/C(=C\c2c[nH]c3ccccc23)N1,11 µM,
O=c1nncc(Nc2ccc3cn[nH]c3c2)[nH]1,13 µM,
Cc1[nH]c2ccccc2c1-c1ccnc(N2CCCC2)n1,> 100 µM,
Cc1[nH]c2ccccc2c1-c1ccnc(N2CCN(c3ccccn3)CC2)n1,> 100 µM,
CN1C(=O)NC(=O)/C(=C\c2c[nH]c3ccc(O)cc23)C1=O,3 µM,
"COC(=O)[C@]1(O)C[C@@H]2O[C@@]1(C)n1c3ccccc3c3c4c(c5c6ccccc6n2c5c31)C(=O)NC4 (single isomer, unassigned)",< 0.1 µM,
Cc1[nH]c2ccc(Cl)cc2c1-c1ccnc(NCc2cccnc2)n1,48 µM,
COc1ccc2c(c1)[nH]c1c(N3CCN(C(N)=O)CC3)ncnc12,13 µM,
O=C1NC(=O)c2c1c1c3ccccc3[nH]c1n1cncc21 [ISOGRANULATIMIDE],< 0.1 µM,
O=C1NC(=O)/C(=C/c2c[nH]c3ccc(Br)cc23)N1,4 µM,
Cc1[nH]c2ccccc2c1-c1ccnc(NC(CO)C(C)C)n1 (configuration not stated),50 µM,

SMILES,IC50 [1],also measured
O=C1Cc2ccc(Oc3ccc4c(c3)NC(=O)C4)cc2N1,14 µM,
CSc1cccc(N/C=C2\C(=O)Nc3ccccc32)c1,2.5 µM,
CN1CCN(c2ccc(Nc3ncnc4ccc([N+](=O)[O-])cc34)cc2)CC1,15 µM,
Cc1[nH]c2ccc(Cl)cc2c1-c1ccnc(NC2CCCC2)n1,8 µM,
N#C/C(=C1/Nc2ccccc2S1)c1ccnc(NCCc2cccnc2)n1,< 0.1 µM,
O=C1NCc2c1c1c3ccccc3n3c1c1c2c2ccccc2n1C1CCC3O1 (configuration not stated),0.75 µM,
COc1ccc2[nH]cc(-c3ccnc(NCCN4CCOCC4)n3)c2c1,> 100 µM,
c1cc(-c2cnn3cc(-c4ccc(OCCN5CCCCC5)cc4)cnc23)ccn1 [DORSOMORPHIN],16 µM,
NCc1ccc(C(=O)N/N=C2\C(=O)Nc3ccc(Br)cc32)cc1,12 µM,
COc1ccc2[nH]c(C)c(-c3ccnc(NC4CCCC4)n3)c2c1,1.5 µM,
Cc1[nH]c2ccccc2c1-c1ccnc(NCCc2c[nH]c3ccccc23)n1,9 µM,Activity (Vero): Non-toxic; Activity [3]: Non-toxic; Activity [4]: Non-toxic; Ki [5]: 3.4 µM; inhibition [6]: Dose-dependent effect
Cc1[nH]c2ccccc2c1-c1ccnc(Nc2ccc(Cl)cc2)n1,0.6 µM,
Oc1c2ccccc2c2c3c(cccc13)N=N2 [SP-600125],8 µM,
O=C(O)/C=C/c1cc(Br)c(Br)c(Br)c1Br,7 µM,
O=C1Nc2ccccc2/C1=C1/Nc2ccccc2/C1=N\OCCC(O)CO (configuration not stated),< 0.1 µM,
c1ccc(-c2[nH]c3ccccc3c2-c2ccnc(NC3CCCC3)n2)cc1,> 100 µM,inhibition [2]: inactive
COC(=O)c1ccc2c(-c3ccnc(NCCN4CCOCC4)n3)c[nH]c2c1,18 µM,
Cc1[nH]c2ccccc2c1-c1ccnc(N2CCOCC2)n1,90 µM,
Nc1ncnc2[nH]nc(Nc3ccc(F)cc3)c12,5 µM,
Nc1nc(Nc2ccc(S(N)(=O)=O)cc2)nn1C(=S)Nc1c(F)cccc1F,1.6 µM,
Nc1n[nH]c2nc3ccccc3nc12 [QUINOXALINE1],6 µM,
Cc1[nH]c2ccccc2c1-c1ccnc(Nc2ccc(F)cc2)n1,0.15 µM,
FC(F)(F)c1nnc2ccc(NCCc3c[nH]c4ccccc34)nn12,19 µM,
CCN(CC)C(=O)c1ccc(Nc2nc(OCC3CCCCC3)c3nc[nH]c3n2)cc1,2 µM,
Nc1nc(Nc2ccc(S(N)(=O)=O)cc2)nn1C(=O)Nc1c(F)cccc1F,8 µM,
COCCCNc1nccc(-c2c(C)[nH]c3ccccc23)n1,1.5 µM,
c1ccc(-c2[nH]c3ccccc3c2-c2ccnc(NCCN3CCOCC3)n2)cc1,12 µM,

SMILES,IC50 [1],also measured
COCCCNc1nccc(-c2c(C)[nH]c3ccc(Cl)cc23)n1,3 µM,
C=C1NNC(=O)/C1=N\Nc1ccc(S(N)(=O)=O)cc1,11 µM,
OCCNc1nccc(-c2c[nH]c3ccccc23)n1,11 µM,
Nc1nc(Nc2ccc(OC(F)(F)F)cc2)c2nc[nH]c2n1,20 µM,
N#Cc1cnc2cnc(NCc3cccnc3)cc2c1Nc1ccc(F)c(Cl)c1,0.25 µM,
O=C(O)c1ccc2c3c1cccc3c(=O)n1c3ccccc3nc21,< 0.1 µM,
O=C1Nc2cc(Br)ccc2/C1=C1/Nc2ccccc2/C1=N\O [6BIO],0.6 µM,
Cc1[nH]c2ccc(Cl)cc2c1-c1ccnc(N2CCN(c3ccc(F)cc3)CC2)n1,> 100 µM,
Cc1[nH]c2ccccc2c1-c1ccnc(N2CCN(c3ccc(F)cc3)CC2)n1,> 100 µM,
COc1ccc2c(c1)/C(=C/c1cnc[nH]1)C(=O)N2 [SU-9516],5 µM,
Cc1[nH]c2ccccc2c1-c1ccnc(NCCO)n1,11 µM,
Cc1[nH]c2ccccc2c1-c1ccnc(NCc2cccnc2)n1,45 µM,
NC(=O)Nc1sc(-c2ccc(F)cc2)cc1C(N)=O,0.25 µM,
Cc1[nH]c2ccc(Cl)cc2c1-c1ccnc(Nc2cccc(Cl)c2)n1,2.5 µM,
COC(=O)c1ccc2c(-c3ccnc(SCCN(C)C)n3)c[nH]c2c1,> 100 µM,
Cc1[nH]c2ccc(Cl)cc2c1-c1ccnc(N2CCCC2)n1,> 100 µM,
CC(C)n1cnc2c(Nc3cccc(Cl)c3)nc(NCCO)nc21,16 µM,
CCn1cnc2c(Nc3cccc(Cl)c3)nc(N[C@@H]3CCCC[C@@H]3N)nc21,3 µM,
Cc1[nH]c2ccc(Cl)cc2c1-c1ccnc(Nc2ccc(N3CCN(C)CC3)cc2)n1,0.1 µM,
c1ccc2c(CCNc3nccc(-c4c[nH]nc4-c4ccncc4)n3)c[nH]c2c1,51 µM,
COc1ccc(Nc2nccc(-c3c(C)[nH]c4ccc(OC)cc34)n2)cc1,55 µM,
Cc1[nH]c2ccc(Cl)cc2c1-c1ccnc(NCCN2CCOCC2)n1,12 µM,
COc1ccc2[nH]c(C)c(-c3ccnc(Nc4ccc(Cl)cc4)n3)c2c1,50 µM,
Cc1[nH]c2ccccc2c1-c1ccnc(Nc2ccc(F)c(F)c2)n1,1.5 µM,
O=C1NC(=O)c2c1c1c3ccccc3[nH]c1c1[nH]c3cc(Br)ccc3c21,6 µM,
C=C1NNC(=O)N=C1Nc1ccc2cn[nH]c2c1,16 µM,
